How the values were obtained:
CDK2 = biological target: T1, CDK2 (Homo sapiens, UniProt P24941); experiment: CDK2 kinase activity assay (Hot-Spot); assay type: biochemical; conditions: 10 μM ATP; mean ± SD, three independent experiments
T1 construct: purchased Reaction Biology Corp
Experimental: (§1) Activities of kinases were determined using Hot-SpotSM kinase assay which was performed by Reaction Biology Corp. (Malvern PA, USA) as described previously.

FLT3 (ITD)-NPOS = FLT3 (ITD)-NPOS (Homo sapiens, UniProt P36888, ITD); experiment: Hot-Spot kinase profiling; assay type: biochemical
Experimental: as §1

BTK = biological target: T2, BTK (Homo sapiens, UniProt Q06187); experiment: Hot-Spot kinase profiling; assay type: biochemical; conditions: read-out: % Enzyme Activity (Relative to DMSO Controls) BTK
T2 construct: purchased Reaction Biology Corp. (HotSpot kinase assay)
Experimental: as §1

FLT3 (D835Y) = biological target: T3, FLT3 (D835Y) (Homo sapiens, UniProt P36888, D835Y); experiment: Hot-Spot kinase profiling; assay type: biochemical
T3 construct: purchased Reaction Biology Corp
Experimental: as §1

Aurora B = biological target: T4, Aurora B (Homo sapiens, UniProt Q96GD4); experiment: Hot-Spot kinase profiling; assay type: biochemical; conditions: read-out: % Enzyme Activity (Relative to DMSO Controls) Aurora B
T4 construct: purchased Reaction Biology Corp. (HotSpot kinase assay)
Experimental: as §1

CHK2 = biological target: T5, CHK2 (Homo sapiens, UniProt O96017); experiment: Hot-Spot kinase profiling; assay type: biochemical; conditions: read-out: % Enzyme Activity (Relative to DMSO Controls) CHK2
T5 construct: purchased Reaction Biology Corp. (HotSpot kinase assay)
Experimental: as §1

FGFR1 = biological target: T6, FGFR1 (Homo sapiens, UniProt P11362); experiment: Hot-Spot kinase profiling; assay type: biochemical; conditions: read-out: % Enzyme Activity (Relative to DMSO Controls) FGFR1
T6 construct: purchased Reaction Biology Corp. (HotSpot kinase assay)
Experimental: as §1

c-Kit = biological target: T7, c-Kit (Homo sapiens, UniProt P10721); experiment: Hot-Spot kinase profiling; assay type: biochemical; conditions: read-out: % Enzyme Activity (Relative to DMSO Controls) c-Kit
T7 construct: purchased Reaction Biology Corp. (HotSpot kinase assay)
Experimental: as §1

Aurora A = biological target: T8, Aurora A (Homo sapiens, UniProt O14965); experiment: Hot-Spot kinase profiling; assay type: biochemical; conditions: read-out: % Enzyme Activity (Relative to DMSO Controls) Aurora A
T8 construct: purchased Reaction Biology Corp. (HotSpot kinase assay)
Experimental: as §1

JNK1 = biological target: T9, JNK1 (Homo sapiens, UniProt P45983); experiment: Hot-Spot kinase profiling; assay type: biochemical; conditions: read-out: % Enzyme Activity (Relative to DMSO Controls) JNK1
T9 construct: purchased Reaction Biology Corp. (Malvern PA, USA)
Experimental: as §1

PDGFRa = biological target: T10, PDGFRa (Homo sapiens, UniProt P16234); experiment: Hot-Spot kinase profiling; assay type: biochemical; conditions: read-out: % Enzyme Activity (Relative to DMSO Controls) PDGFRa
T10 construct: purchased Reaction Biology Corp. (Malvern PA, USA)
Experimental: as §1

FLT3 (F594_R595insR) = biological target: T11, FLT3 (F594_R595insR) (Homo sapiens, UniProt P36888, INS594R); experiment: Hot-Spot kinase profiling; assay type: biochemical
T11 construct: purchased Reaction Biology Corp
Experimental: as §1

FLT3 (F594_R595insREY) = biological target: T12, FLT3 (F594_R595insREY) (Homo sapiens, UniProt P36888, INS594REY); experiment: Hot-Spot kinase profiling; assay type: biochemical
T12 construct: purchased Reaction Biology Corp
Experimental: as §1

FLT1/VEGFR1 = biological target: T13, FLT1/VEGFR1 (Homo sapiens, UniProt P17948); experiment: Hot-Spot kinase profiling; assay type: biochemical
T13 construct: purchased Reaction Biology Corp
Experimental: as §1

BRAF = biological target: T14, BRAF (Homo sapiens, UniProt P15056); experiment: Hot-Spot kinase profiling; assay type: biochemical; conditions: read-out: % Enzyme Activity (Relative to DMSO Controls) BRAF
T14 construct: purchased Reaction Biology Corp. (HotSpot kinase assay)
Experimental: as §1

CDK6/cyclin D1 = biological target: T15, CDK6/cyclin D1 (Homo sapiens, UniProt Q00534); experiment: Hot-Spot kinase profiling; assay type: biochemical
T15 construct: purchased Reaction Biology Corp
Experimental: as §1

JAK2 = biological target: T16, JAK2 (Homo sapiens, UniProt O60674); experiment: Hot-Spot kinase profiling; assay type: biochemical; conditions: read-out: % Enzyme Activity (Relative to DMSO Controls) JAK2
T16 construct: purchased Reaction Biology Corp
Experimental: as §1

FLT3 (R595_E596insEY) = biological target: T17, FLT3 (R595_E596insEY) (Homo sapiens, UniProt P36888, INS595EY); experiment: Hot-Spot kinase profiling; assay type: biochemical
T17 construct: purchased Reaction Biology Corp
Experimental: as §1

CDK7/cyclin H = biological target: T18, CDK7/cyclin H (Homo sapiens, UniProt P50613); experiment: Hot-Spot kinase profiling; assay type: biochemical
T18 construct: purchased Reaction Biology Corp
Experimental: as §1

[1] = test system: phosphorylation of the FLT3; experiment: Western blot, phosphorylation of FLT3 in MV4-11 cells; assay type: cell-based, human; conditions: MV4-11, 4 h, 1 μM; dose-dependent, more potent than sorafenib
Experimental: Analysis of pFLT3, pSTAT5, pERK, pAKT, and pRb in vitro: to determine the levels of pFLT3, pSTAT5, pERK, pAKT, and pRb, cells were seeded in a 6-well cell culture plate at a density of 400,000 cells per well for MV4-11 in a total volume of 1800 μL and incubated overnight in medium containing 10% fetal bovine serum (Life Technologies, Rockville, MD, USA). Then 200 μL of serially diluted compounds were added to each well the next day. Cell lysates were harvested after 4 h and pFLT3, pSTAT5, pERK, pAKT, or pRb were quantified using assay kits for FLT3/Phospho-FLT3Tyr589/591, pSTAT5 (Tyr694)/total STAT5, pRb (Ser807)/total Rb (Nanjin keyGen Biotech Company, Nanjing, China) following the manufacturer’s protocols.

T18 sequence (P50613 whole entry): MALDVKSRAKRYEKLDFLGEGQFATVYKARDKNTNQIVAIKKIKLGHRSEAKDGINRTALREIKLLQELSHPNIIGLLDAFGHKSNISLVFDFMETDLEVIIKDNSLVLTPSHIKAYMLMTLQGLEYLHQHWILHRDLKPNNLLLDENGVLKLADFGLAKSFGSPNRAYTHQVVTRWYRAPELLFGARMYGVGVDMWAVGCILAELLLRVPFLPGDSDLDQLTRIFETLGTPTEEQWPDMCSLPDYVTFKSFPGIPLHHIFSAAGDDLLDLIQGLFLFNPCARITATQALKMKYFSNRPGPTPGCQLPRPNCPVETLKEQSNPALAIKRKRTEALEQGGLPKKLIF
T18 sequence (P51946 whole entry partner): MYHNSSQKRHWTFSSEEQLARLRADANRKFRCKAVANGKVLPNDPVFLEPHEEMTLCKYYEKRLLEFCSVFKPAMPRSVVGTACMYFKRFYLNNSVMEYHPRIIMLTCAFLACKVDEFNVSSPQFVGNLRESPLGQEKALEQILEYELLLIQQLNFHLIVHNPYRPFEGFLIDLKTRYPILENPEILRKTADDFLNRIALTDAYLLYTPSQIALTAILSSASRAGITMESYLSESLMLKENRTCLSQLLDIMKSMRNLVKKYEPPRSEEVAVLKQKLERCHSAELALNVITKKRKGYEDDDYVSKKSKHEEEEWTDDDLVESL
T18 sequence (P51948 whole entry partner): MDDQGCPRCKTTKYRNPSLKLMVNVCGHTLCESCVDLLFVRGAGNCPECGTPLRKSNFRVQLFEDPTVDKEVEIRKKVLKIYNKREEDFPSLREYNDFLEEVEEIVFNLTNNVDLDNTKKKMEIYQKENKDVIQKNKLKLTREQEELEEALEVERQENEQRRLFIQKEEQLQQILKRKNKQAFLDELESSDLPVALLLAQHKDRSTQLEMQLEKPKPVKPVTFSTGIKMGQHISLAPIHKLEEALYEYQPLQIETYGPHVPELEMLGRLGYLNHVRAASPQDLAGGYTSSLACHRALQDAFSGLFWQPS
T13 sequence (P17948 27-1338): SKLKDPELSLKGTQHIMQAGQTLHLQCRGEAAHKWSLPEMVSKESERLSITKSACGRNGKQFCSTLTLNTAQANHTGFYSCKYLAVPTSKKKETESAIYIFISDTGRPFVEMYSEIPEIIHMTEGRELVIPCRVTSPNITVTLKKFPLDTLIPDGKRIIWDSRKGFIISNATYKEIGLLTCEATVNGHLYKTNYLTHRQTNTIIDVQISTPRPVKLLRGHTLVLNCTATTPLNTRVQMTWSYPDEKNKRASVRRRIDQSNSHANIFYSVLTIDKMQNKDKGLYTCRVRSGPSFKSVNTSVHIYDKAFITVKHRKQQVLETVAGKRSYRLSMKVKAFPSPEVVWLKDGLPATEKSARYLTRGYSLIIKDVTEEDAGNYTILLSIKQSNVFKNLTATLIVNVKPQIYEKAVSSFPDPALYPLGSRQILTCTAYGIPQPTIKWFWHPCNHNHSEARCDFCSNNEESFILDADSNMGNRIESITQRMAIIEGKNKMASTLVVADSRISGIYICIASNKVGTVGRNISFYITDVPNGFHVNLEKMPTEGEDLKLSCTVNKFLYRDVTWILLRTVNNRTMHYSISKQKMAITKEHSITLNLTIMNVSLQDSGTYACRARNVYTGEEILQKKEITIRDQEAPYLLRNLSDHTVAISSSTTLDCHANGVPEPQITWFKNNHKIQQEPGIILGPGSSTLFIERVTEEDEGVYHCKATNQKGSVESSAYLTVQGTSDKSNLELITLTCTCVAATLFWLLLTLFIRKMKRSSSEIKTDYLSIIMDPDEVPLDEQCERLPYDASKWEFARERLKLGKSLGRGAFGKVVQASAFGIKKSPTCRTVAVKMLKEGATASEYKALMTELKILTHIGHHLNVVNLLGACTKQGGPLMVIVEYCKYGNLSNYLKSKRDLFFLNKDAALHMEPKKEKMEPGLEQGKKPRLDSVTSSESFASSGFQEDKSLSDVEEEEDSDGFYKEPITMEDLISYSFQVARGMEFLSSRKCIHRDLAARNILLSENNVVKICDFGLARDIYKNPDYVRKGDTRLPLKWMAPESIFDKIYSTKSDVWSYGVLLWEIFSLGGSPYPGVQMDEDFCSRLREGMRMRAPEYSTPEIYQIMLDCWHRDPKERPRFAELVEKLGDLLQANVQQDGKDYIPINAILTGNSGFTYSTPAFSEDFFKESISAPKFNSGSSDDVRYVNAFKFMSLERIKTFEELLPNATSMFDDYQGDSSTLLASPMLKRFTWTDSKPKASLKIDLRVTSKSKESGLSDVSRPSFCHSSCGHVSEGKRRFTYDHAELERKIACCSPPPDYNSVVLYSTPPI
T15 sequence (Q00534 whole entry): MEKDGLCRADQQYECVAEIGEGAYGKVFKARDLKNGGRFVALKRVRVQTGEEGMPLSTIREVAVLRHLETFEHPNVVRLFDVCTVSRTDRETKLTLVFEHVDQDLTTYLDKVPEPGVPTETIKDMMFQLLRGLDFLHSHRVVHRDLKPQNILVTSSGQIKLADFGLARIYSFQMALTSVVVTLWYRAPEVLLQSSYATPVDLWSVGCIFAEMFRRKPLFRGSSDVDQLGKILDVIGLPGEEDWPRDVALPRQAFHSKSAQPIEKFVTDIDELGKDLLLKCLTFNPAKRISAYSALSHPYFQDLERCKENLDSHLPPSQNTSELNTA
T15 sequence (P24385 whole entry partner): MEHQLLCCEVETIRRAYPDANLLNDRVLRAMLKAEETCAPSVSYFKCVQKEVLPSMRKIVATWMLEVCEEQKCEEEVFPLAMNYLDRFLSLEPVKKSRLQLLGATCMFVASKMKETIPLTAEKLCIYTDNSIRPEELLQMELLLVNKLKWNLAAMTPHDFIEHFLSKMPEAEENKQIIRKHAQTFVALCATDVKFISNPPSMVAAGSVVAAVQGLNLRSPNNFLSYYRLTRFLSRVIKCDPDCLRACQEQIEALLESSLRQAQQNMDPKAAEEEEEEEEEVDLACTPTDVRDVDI
T5 sequence (O96017 whole entry): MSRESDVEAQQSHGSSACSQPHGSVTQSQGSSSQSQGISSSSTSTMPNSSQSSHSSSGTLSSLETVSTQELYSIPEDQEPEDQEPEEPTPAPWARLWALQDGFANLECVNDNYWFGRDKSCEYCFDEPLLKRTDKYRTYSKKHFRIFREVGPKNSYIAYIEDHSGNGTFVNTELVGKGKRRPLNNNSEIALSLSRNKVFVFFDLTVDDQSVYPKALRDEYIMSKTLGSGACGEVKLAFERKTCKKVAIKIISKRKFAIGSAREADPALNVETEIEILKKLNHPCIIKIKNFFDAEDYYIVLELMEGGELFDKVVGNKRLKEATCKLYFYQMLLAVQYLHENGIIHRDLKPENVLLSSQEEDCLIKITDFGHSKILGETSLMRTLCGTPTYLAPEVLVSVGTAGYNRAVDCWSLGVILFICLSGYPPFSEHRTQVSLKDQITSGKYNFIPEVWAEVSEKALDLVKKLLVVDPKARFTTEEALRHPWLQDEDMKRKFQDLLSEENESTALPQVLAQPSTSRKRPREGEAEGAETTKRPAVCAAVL
T8 sequence (O14965 whole entry): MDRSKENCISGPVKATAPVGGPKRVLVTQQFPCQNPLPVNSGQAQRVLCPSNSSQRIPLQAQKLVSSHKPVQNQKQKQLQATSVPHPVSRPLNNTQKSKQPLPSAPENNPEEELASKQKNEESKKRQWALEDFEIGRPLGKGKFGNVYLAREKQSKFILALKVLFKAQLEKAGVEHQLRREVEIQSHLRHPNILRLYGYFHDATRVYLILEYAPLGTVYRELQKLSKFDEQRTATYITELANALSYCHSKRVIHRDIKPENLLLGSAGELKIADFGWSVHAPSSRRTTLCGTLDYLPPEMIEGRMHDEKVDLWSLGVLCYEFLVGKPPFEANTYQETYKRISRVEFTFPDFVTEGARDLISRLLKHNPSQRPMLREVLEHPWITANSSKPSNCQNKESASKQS
T4 sequence (Q96GD4 whole entry): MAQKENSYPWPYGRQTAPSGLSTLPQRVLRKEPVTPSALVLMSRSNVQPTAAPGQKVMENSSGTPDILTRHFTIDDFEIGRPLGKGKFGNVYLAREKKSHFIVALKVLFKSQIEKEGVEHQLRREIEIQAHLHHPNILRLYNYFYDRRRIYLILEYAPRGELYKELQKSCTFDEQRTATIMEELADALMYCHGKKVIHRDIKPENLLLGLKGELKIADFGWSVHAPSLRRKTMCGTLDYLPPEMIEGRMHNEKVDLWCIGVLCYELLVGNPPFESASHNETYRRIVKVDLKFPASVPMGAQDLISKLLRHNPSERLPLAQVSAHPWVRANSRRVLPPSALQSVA
T14 sequence (P15056 whole entry): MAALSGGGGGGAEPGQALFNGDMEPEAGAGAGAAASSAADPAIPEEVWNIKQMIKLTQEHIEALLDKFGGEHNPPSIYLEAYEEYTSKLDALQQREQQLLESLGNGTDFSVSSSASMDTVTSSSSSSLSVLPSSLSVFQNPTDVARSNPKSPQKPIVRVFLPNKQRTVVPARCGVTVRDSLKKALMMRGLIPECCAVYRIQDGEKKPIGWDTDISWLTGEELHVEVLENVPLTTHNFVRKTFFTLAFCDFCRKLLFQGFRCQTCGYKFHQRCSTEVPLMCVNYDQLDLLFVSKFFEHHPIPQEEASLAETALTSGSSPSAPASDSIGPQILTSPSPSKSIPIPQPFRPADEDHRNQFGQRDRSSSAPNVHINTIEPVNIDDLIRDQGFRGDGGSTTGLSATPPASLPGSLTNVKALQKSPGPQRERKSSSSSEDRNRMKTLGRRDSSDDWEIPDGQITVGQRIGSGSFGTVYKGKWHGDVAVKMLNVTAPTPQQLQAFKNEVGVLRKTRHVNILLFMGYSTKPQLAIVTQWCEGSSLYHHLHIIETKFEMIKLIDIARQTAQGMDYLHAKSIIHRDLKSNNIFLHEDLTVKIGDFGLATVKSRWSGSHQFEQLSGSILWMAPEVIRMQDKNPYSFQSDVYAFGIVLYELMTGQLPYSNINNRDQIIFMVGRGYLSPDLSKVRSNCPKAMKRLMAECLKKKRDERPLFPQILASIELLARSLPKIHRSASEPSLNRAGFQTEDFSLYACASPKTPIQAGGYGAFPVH

O=C(Nc1ccc(N2CCNCC2)cc1)c1n[nH]cc1Nc1ncnc2sc3c(c12)CCC3 [Compound 8t]
IC50 (CDK2): 0.719 ± 0.064 nM | remaining activity at 0.15 µM (FLT3 (ITD)-NPOS; 0.15 μM, read-out: % Enzyme Activity (Relative to DMSO Controls) FLT3 (ITD)-NPOS): 1.38% | IC50 (FLT3 (ITD)-NPOS; Table 5 kinase profiling): 4.32 ± 0.23 nM | remaining activity at 0.15 µM (BTK): 97.1% | remaining activity at 0.15 µM (FLT3 (D835Y); 0.15 μM, read-out: % Enzyme Activity (Relative to DMSO Controls) FLT3 (D835Y)): 0.27% | IC50 (FLT3 (D835Y); Table 5 kinase profiling): 0.75 ± 0.04 nM | remaining activity at 0.15 µM (Aurora B): 55.3% | remaining activity at 0.15 µM (CHK2): 38.4% | remaining activity at 0.15 µM (FGFR1): 40% | remaining activity at 0.15 µM (c-Kit): 64.8% | remaining activity at 0.15 µM (Aurora A): 38% | remaining activity at 0.15 µM (JNK1): 39.2% | remaining activity at 0.15 µM (PDGFRa): 82.8% | remaining activity at 0.15 µM (FLT3 (F594_R595insR); 0.15 μM, read-out: % Enzyme Activity (Relative to DMSO Controls) FLT3 (F594_R595insR)): 0.47% | IC50 (FLT3 (F594_R595insR); Table 5 kinase profiling): 0.63 ± 0.09 nM | remaining activity at 0.15 µM (FLT3 (F594_R595insREY); 0.15 μM, read-out: % Enzyme Activity (Relative to DMSO Controls) FLT3 (F594_R595insREY)): 0.8% | IC50 (FLT3 (F594_R595insREY); Table 5 kinase profiling): 1.38 ± 0.11 nM | remaining activity at 0.15 µM (FLT1/VEGFR1; 0.15 μM, read-out: % Enzyme Activity (Relative to DMSO Controls) FLT1/VEGFR1): 6.08% | IC50 (FLT1/VEGFR1; Table 5 kinase profiling): 12.4 ± 0.19 nM | remaining activity at 0.15 µM (BRAF): 77.6% | remaining activity at 0.15 µM (CDK6/cyclin D1; 0.15 μM, read-out: % Enzyme Activity (Relative to DMSO Controls) CDK6/cyclin D1): 1.33% | IC50 (CDK6/cyclin D1; Table 5 kinase profiling): 0.59 ± 0.09 nM | remaining activity at 0.15 µM (JAK2): 32% | remaining activity at 0.15 µM (FLT3 (R595_E596insEY); 0.15 μM, read-out: % Enzyme Activity (Relative to DMSO Controls) FLT3 (R595_E596insEY)): 0.44% | IC50 (FLT3 (R595_E596insEY); Table 5 kinase profiling): 1.59 ± 0.14 nM | remaining activity at 0.15 µM (CDK7/cyclin H; 0.15 μM, read-out: % Enzyme Activity (Relative to DMSO Controls) CDK7/cyclin H): 19.9% | IC50 (CDK7/cyclin H; Table 5 kinase profiling): 21.3 ± 1.01 nM | phosphorylation of the FLT3 [1]: eliminated

Source: paper PMC6887723, “Design and Synthesis of 4-(Heterocyclic Substituted Amino)-1H-Pyrazole-3-Carboxamide Derivatives and Their Potent Activity against Acute Myeloid Leukemia (AML)” (International Journal of Molecular Sciences, 2019)
